Measurements reported in patent US9320276B2, “N-hetarylmethyl pyrazolylcarboxamides” (BAYER INTELLECTUAL PROPERTY GMBH, priority 2010, dated 2016).

Tested on: Botrytis cinerea
Test: in vivo protective test on Botrytis cinerea (beans)
Conditions: 100 ppm of active ingredient, preventive, lesion size 2 days after inoculation
Procedure: Solvent: 24.5 parts by weight of acetone • 24.5 parts by weight of N,N-dimethylacetamide Emulsifier: 1 part by weight of alkylaryl polyglycol ether To produce a suitable preparation of active compound, 1 part by weight of active compound is mixed with the stated amounts of solvent and emulsifier, and the concentrate is diluted with water to the desired concentration. To test for preventive activity, young plants are sprayed with the preparation of active compound. After the spray coating has dried on, 2 small pieces of agar covered with growth of Botrytis cinerea are placed on each leaf. The inoculated plants are placed in a darkened chamber at 20° C. and a relative atmospheric humidity of 100%. 2 days after the inoculation, the size of the lesions on the leaves is evaluated. 0% means an efficacy which corresponds to that of the untreated control, while an efficacy of 100% means that no disease is observed.

Row | Structure (SMILES) | Efficacy [%]
1 | CC(c1cc2ccccc2s1)N(C(=O)c1c(C(F)F)nn(C)c1F)C1CC1 (racemic) [Example 80] | 100
2 | CC(c1cc2ccccc2o1)N(C(=O)c1c(C(F)F)nn(C)c1F)C1CC1 (racemic) [Example 70] | 95
3 | CC(c1cc(Cl)sc1Cl)N(C(=O)c1c(C(F)F)nn(C)c1F)C1CC1 (stereo not shown) [Example 128] | 100
4 | CC(C)c1nn(-c2ccccc2)c(Cl)c1CN(C(=O)c1c(C(F)F)nn(C)c1F)C1CC1 [Example 169] | 100
5 | Cc1sc(-c2ccccc2)cc1C(C)N(C(=O)c1c(C(F)F)nn(C)c1F)C1CC1 (stereo not shown) [Example 147] | 100

Tested on: Puccinia triticina
Test: in vivo protective test on Puccinia triticina (wheat)
Conditions: 500 ppm of active ingredient, preventive, evaluated 8 days after inoculation
Procedure: Solvent: 49 parts by weight of N,N-dimethylacetamide Emulsifier: 1 part by weight of alkylaryl polyglycol ether To produce a suitable preparation of active compound, 1 part by weight of active compound or active compound combination is mixed with the stated amounts of solvent and emulsifier, and the concentrate is diluted with water to the desired concentration. To test for preventive activity, young plants are sprayed with the preparation of active compound or active compound combination at the stated rate of application. After the spray coating has been dried, the plants are sprayed with a spore suspension of Puccinia triticina. The plants remain for 48 hours in an incubation cabinet at approximately 20° C. and a relative atmospheric humidity of approximately 100%. The plants are placed in the greenhouse at a temperature of approximately 20° C. and a relative atmospheric humidity of approximately 80%. The test is evaluated 8 days after the inoculation. 0% means an efficacy which corresponds to that of the untreated control, while an efficacy of 100% means that no disease is observed.

Row | Structure (SMILES) | Efficacy [%]
6 | CC(c1cc2ccccc2s1)N(C(=O)c1c(C(F)F)nn(C)c1F)C1CC1 (racemic) [Example 80] | 100
7 | CC(c1cccc2ccsc12)N(C(=O)c1c(C(F)F)nn(C)c1F)C1CC1 (stereo not shown) [Example 91] | 100
8 | CC(c1cc(Cl)sc1Cl)N(C(=O)c1c(C(F)F)nn(C)c1F)C1CC1 (stereo not shown) [Example 128] | 100
9 | Cn1nc(C(F)F)c(C(=S)N(Cc2cccc3ccsc23)C2CC2)c1F [Example 95] | 83
10 | CC(C)c1nn(-c2ccccc2)c(Cl)c1CN(C(=O)c1c(C(F)F)nn(C)c1F)C1CC1 [Example 169] | 100

Tested on: not listed separately
Test: logP by HPLC on reversed-phase column (EEC Directive 79/831 Annex V.A8)
Type: physicochemical
Conditions: HPLC on reversed-phase column (C 18), 40° C., 0.1% aqueous formic acid and acetonitrile, linear gradient 10% to 90% acetonitrile
How it was run: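 Reversed-phase C18 HPLC at 40° C with 0.1% aqueous formic acid/acetonitrile, linear gradient 10% to 90% acetonitrile. LogP obtained from retention time by linear interpolation between successive unbranched alkan-2-ones (3 to 16 carbons) of known logP. Lambda-max taken from UV spectra at 200-400 nm at chromatographic peak maxima.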

Row | logP | Structure (SMILES)
11 | 3.69 | CC(c1cc2ccccc2s1)N(C(=O)c1c(C(F)F)nn(C)c1F)C1CC1 (racemic) [Example 80]
12 | 3.44 | CC(c1cccc2ccsc12)N(C(=O)c1c(C(F)F)nn(C)c1F)C1CC1 (stereo not shown) [Example 91]
13 | 3.42 | CC(c1cc2ccccc2o1)N(C(=O)c1c(C(F)F)nn(C)c1F)C1CC1 (racemic) [Example 70]
14 | 4.03 | CC(c1cc(Cl)sc1Cl)N(C(=O)c1c(C(F)F)nn(C)c1F)C1CC1 (stereo not shown) [Example 128]
15 | 3.83 | Cn1nc(C(F)F)c(C(=S)N(Cc2cccc3ccsc23)C2CC2)c1F [Example 95]
16 | 4.41 | Cc1sc(-c2ccccc2)cc1C(C)N(C(=O)c1c(C(F)F)nn(C)c1F)C1CC1 (stereo not shown) [Example 147]

Same assay, conditions: HPLC, reversed-phase column (C 18), 40° C., 0.1% aqueous formic acid and acetonitrile, linear gradient 10% to 90% acetonitrile

Row | logP | Structure (SMILES)
17 | 3.94 | CC(C)c1nn(-c2ccccc2)c(Cl)c1CN(C(=O)c1c(C(F)F)nn(C)c1F)C1CC1 [Example 169]

Tested on: Venturia inaequalis
Test: in vivo preventive test on Venturia inaequalis (apple scab)
Conditions: 100 ppm of active ingredient, evaluated 10 days after inoculation
Procedure: (§1) Solvent: 24.5 parts by weight of acetone • 24.5 parts by weight of N,N-dimethylacetamide Emulsifier: 1 part by weight of alkylaryl polyglycol ether To produce a suitable preparation of active compound, 1 part by weight of active compound is mixed with the stated amounts of solvent and emulsifier, and the concentrate is diluted with water to the desired concentration. To test for preventive activity, young plants are sprayed with the preparation of active compound at the stated rate of application. After the spray coating has dried on, the plants are inoculated with an aqueous conidia suspension of the causal agent of apple scab (Venturia inaequalis) and then remain for 1 day in an incubation cabinet at approximately 20° C. and a relative atmospheric humidity of 100%. The plants are then placed in a greenhouse at approximately 21° C. and a relative atmospheric humidity of approximately 90%. The test is evaluated 10 days after the inoculation. 0% means an efficacy which corresponds to that of the untreated control, while an efficacy of 100% means that no disease is observed.

Row | Structure (SMILES) | Efficacy [%]
18 | CC(c1cc2ccccc2s1)N(C(=O)c1c(C(F)F)nn(C)c1F)C1CC1 (racemic) [Example 80] | 100
19 | CC(c1cccc2ccsc12)N(C(=O)c1c(C(F)F)nn(C)c1F)C1CC1 (stereo not shown) [Example 91] | 100
20 | CC(c1cc2ccccc2o1)N(C(=O)c1c(C(F)F)nn(C)c1F)C1CC1 (racemic) [Example 70] | 100
21 | CC(c1cc(Cl)sc1Cl)N(C(=O)c1c(C(F)F)nn(C)c1F)C1CC1 (stereo not shown) [Example 128] | 100
22 | Cn1nc(C(F)F)c(C(=S)N(Cc2cccc3ccsc23)C2CC2)c1F [Example 95] | 99
23 | Cc1sc(-c2ccccc2)cc1C(C)N(C(=O)c1c(C(F)F)nn(C)c1F)C1CC1 (stereo not shown) [Example 147] | 100

Tested on: Uromyces appendiculatus
Test: in vivo preventive test on Uromyces appendiculatus (beans)
Conditions: 100 ppm of active ingredient, evaluated 10 days after inoculation
Procedure: as §1, with “spore” for “conidia”, “bean rust (Uromyces appendiculatus)” for “apple scab (Venturia inaequalis)”

Row | Structure (SMILES) | Efficacy [%]
24 | CC(c1cc2ccccc2o1)N(C(=O)c1c(C(F)F)nn(C)c1F)C1CC1 (racemic) [Example 70] | 100
25 | CC(c1cc(Cl)sc1Cl)N(C(=O)c1c(C(F)F)nn(C)c1F)C1CC1 (stereo not shown) [Example 128] | 100
26 | Cn1nc(C(F)F)c(C(=S)N(Cc2cccc3ccsc23)C2CC2)c1F [Example 95] | 90
27 | CC(C)c1nn(-c2ccccc2)c(Cl)c1CN(C(=O)c1c(C(F)F)nn(C)c1F)C1CC1 [Example 169] | 100
28 | Cc1sc(-c2ccccc2)cc1C(C)N(C(=O)c1c(C(F)F)nn(C)c1F)C1CC1 (stereo not shown) [Example 147] | 83
